# Data reported in ChEMBL document CHEMBL1201862, “PubChem BioAssay data set” (2004).
#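 Method: 48-hour compound exposure of cells in 96-well plates, five concentrations, linear interpolation of endpoints. Here, GI50 denotes the concentration required for 50% inhibition of growth.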 Active and inactive are the calls of the source. Cut-off read from the data, not from the text of the source: active = GI50 up to about 1.1 µM and inactive = higher.
# Experiments:
# Assay in all cases: NCI-60 cell line screen, 48 h
# BT-549 = system: BT-549
# EKVX = system: EKVX
# Malme-3M = system: Malme-3M
# OVCAR-3 = system: OVCAR-3
# SNB-19 = system: SNB-19
# TK-10 = system: TK-10
structure (smiles),measurement,setting,value
C=C1C(=O)O[C@@H]2C=C(C)C3=CC(=O)[C@](C)(C[C@H](OC(=O)/C(C)=C\C)[C@@H]12)O3,GI50,BT-549,0.493 µM (active)
same,GI50,EKVX,2.77 µM (inactive)
same,GI50,Malme-3M,1.34 µM (inactive)
same,GI50,OVCAR-3,0.491 µM (active)
same,GI50,SNB-19,8.47 µM (inactive)
same,GI50,TK-10,0.826 µM (active)
